Laboratory results from ChEMBL document CHEMBL4814073, “Ring-opening of five-membered heterocycles conjugated 4-isopropylresorcinol scaffold-based benzamides as HSP90 inhibitors suppressing tumor growth in vitro and in vivo” (Eur J Med Chem, 2021).
Calls of active or inactive are those of the source. The rule behind the calls is not given here.

Legend:
[1] = Metabolic stability in CD1 mouse hepatocytes assessed as Intrinsic clearance by LC-MS/MS analysis; type: ADME, cell-based, Hepatocyte
A549 [2] = assay: Induction of apoptosis in human A549 cells assessed as upregulation of p53 protein expression at 0.3 uM incubated for 24 hrs by Western blot analysis; type: functional, cell-based
[3] = Half life in Sprague-Dawley rat at 20 mg/kg, po measured after 1 hrs by LC-MS/MS analysis; type: ADME, organism-based; settings: in vivo
[4] = Toxicity in BALB/c mouse xenografted with human H1975 cells assessed as reduction in body weight at 25 to 50 mg/kg, po treated daily relative to control; settings: in vivo
A549 [5] = assay: Induction of cell cycle arrest in human A549 cells assessed as M stage arrest by measuring upregulation of p-MPM-2 expression at 0.3 uM incubated for 24 hrs by Western blot analysis; type: functional, cell-based
Heat shock protein HSP90 [6] = target: T1, Heat shock protein HSP90 (Homo sapiens, UniProt P07900+P08238); assay: Inhibition of HSP90 in human A549 cells assessed as downregulation of FAK expression at 3 uM by immunoblot analysis; type: cell-based; settings: time hrs <=24, TDE = time-dependent effect
A549 [7] = assay: Induction of cell cycle arrest in human A549 cells assessed as M stage arrest by measuring upregulation of p-histone H3 (Ser10) expression at 0.3 uM incubated for 24 hrs by Western blot analysis; type: functional, cell-based
Heat shock protein HSP90 [8] = target: T1, Heat shock protein HSP90; assay: Inhibition of HSP90 in human A549 cells assessed as downregulation of Akt expression incubated for 24 hrs by immunoblot analysis; type: cell-based; settings: dose microM <=3, time 24.0 hrs
A549 [9] = assay: Inhibition of MAPK signaling pathway in human A549 cells at 3 uM incubated upto 24 hrs by immunoblot analysis; type: cell-based; settings: time hrs <=24, TDE = time-dependent effect
NCI-H1975 = assay: Antitumor activity against human NCI-H1975 cells xenografted in BALB/c mouse assessed as tumor growth inhibition at 50 mg/kg, po treated daily relative to control; settings: read-out: TGI
A549 [10] = assay: Antitumor activity against human A549 cells xenografted in BALB/c mouse assessed as tumor growth delay at 25 mg/kg, po treated daily relative to control
A549 [11] = assay: Antitumor activity against human A549 cells xenografted in BALB/c mouse assessed as reduction in tumor growth inhibition at 50 mg/kg, po treated daily relative to control; settings: read-out: TGI
[12] = Metabolic stability in human hepatocytes assessed as half life by LC-MS/MS analysis; type: ADME, cell-based, Hepatocyte
Cytochrome P450 2D6 = Cytochrome P450 2D6 (Homo sapiens, UniProt P10635); assay: Inhibition of CYP2D6 in human liver microsomes using dextromethorphan as substrate by LC-MS/MS analysis; type: ADME
Chain of Cytochrome P450 2D6 (P10635 whole entry): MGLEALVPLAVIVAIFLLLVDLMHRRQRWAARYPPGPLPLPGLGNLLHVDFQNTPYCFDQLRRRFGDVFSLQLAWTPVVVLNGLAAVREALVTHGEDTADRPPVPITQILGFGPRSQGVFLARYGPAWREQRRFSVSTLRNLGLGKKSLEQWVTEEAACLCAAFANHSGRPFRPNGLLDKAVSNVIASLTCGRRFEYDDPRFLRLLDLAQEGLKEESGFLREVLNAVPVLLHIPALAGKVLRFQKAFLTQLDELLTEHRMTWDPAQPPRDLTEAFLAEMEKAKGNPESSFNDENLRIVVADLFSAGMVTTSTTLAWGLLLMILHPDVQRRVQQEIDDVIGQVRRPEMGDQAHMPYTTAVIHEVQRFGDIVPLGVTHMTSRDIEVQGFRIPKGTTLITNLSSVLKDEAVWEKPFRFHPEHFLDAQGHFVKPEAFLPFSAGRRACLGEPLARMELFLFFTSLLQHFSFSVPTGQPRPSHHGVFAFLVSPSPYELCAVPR

[13] = Metabolic stability in Beagle dog hepatocytes assessed as Intrinsic clearance by LC-MS/MS analysis; type: ADME, cell-based, Canis lupus familiaris, Hepatocyte
hERG (KCNH2) = hERG (KCNH2) (Homo sapiens, UniProt Q12809); assay: Inhibition of human ERG stably expressed in HEK293 cells at 10 uM measured after 60 mins by [3H]]Astemizole binding assay; type: cell-based; settings: HEK293 cells stably expressing hERG, probe [3H]astemizole
Chain of hERG (KCNH2) (Q12809 whole entry): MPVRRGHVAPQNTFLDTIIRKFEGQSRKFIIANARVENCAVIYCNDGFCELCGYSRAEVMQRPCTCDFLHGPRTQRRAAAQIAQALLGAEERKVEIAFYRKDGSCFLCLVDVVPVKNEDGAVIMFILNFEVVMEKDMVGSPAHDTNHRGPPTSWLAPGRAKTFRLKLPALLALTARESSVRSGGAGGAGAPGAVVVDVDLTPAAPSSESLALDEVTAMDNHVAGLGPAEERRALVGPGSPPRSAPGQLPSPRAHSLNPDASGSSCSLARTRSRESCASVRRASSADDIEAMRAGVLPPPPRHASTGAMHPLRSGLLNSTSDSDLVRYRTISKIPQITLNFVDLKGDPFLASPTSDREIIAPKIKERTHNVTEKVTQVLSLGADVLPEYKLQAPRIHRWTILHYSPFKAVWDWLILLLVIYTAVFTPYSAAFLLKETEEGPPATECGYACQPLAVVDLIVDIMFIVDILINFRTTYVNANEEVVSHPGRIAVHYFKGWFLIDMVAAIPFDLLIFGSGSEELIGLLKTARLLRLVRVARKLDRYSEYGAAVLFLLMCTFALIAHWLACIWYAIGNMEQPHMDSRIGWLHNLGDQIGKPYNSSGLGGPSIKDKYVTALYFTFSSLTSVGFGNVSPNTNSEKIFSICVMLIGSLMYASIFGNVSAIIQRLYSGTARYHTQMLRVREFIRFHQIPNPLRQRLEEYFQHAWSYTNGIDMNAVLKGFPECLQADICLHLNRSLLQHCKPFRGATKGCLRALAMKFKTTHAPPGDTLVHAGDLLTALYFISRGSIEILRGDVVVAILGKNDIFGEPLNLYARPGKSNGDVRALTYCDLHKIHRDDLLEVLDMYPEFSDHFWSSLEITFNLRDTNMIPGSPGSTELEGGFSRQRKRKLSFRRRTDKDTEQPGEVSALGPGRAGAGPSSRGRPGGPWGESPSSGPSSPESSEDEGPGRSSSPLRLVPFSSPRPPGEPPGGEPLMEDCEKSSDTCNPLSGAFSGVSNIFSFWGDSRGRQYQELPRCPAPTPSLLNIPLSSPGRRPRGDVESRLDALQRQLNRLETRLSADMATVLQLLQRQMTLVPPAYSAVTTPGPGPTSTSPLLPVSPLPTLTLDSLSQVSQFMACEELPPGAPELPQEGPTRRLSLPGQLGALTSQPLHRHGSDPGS

[14] = Hepatic clearance in CD1 mouse by LC-MS/MS analysis; type: ADME, tissue-based, Hepatocyte; settings: hepatocytes
[15] = Metabolic stability in human hepatocytes assessed as Intrinsic clearance by LC-MS/MS analysis; type: ADME, cell-based, Hepatocyte
A549 [16] = assay: Induction of cell cycle arrest in human A549 cells assessed as decrease in cdc25c expression at Ser216 at 0.3 uM incubated for 24 hrs by Western blot analysis; type: functional, cell-based
[17] = Cmax in Sprague-Dawley rat at 2 mg/kg, iv measured after 1 hrs by LC-MS/MS analysis; type: ADME, organism-based; set-up: route intravenous, time 1 hrs, dose 2 mg/kg; settings: in vivo
[18] = Toxicity in BALB/c mouse xenografted with human A549 cells assessed as reduction in body weight at 25 to 50 mg/kg, po treated daily relative to control; settings: in vivo
[19] = Tmax in Sprague-Dawley rat at 20 mg/kg, po measured after 1 hrs by LC-MS/MS analysis; type: ADME, organism-based; settings: in vivo
[20] = Half life in Sprague-Dawley rat at 2 mg/kg, iv measured after 1 hrs by LC-MS/MS analysis; type: ADME, organism-based; settings: in vivo
[21] = Metabolic stability in CD1 mouse hepatocytes assessed as half life by LC-MS/MS analysis; type: ADME, cell-based, Hepatocyte
Cytochrome P450 1A2 = target: T2, Cytochrome P450 1A2 (Homo sapiens, UniProt P05177); assay: Inhibition of CYP1A2 in human liver microsomes using phenacetin as substrate by LC-MS/MS analysis; type: ADME
T2 sequence (P05177 whole entry): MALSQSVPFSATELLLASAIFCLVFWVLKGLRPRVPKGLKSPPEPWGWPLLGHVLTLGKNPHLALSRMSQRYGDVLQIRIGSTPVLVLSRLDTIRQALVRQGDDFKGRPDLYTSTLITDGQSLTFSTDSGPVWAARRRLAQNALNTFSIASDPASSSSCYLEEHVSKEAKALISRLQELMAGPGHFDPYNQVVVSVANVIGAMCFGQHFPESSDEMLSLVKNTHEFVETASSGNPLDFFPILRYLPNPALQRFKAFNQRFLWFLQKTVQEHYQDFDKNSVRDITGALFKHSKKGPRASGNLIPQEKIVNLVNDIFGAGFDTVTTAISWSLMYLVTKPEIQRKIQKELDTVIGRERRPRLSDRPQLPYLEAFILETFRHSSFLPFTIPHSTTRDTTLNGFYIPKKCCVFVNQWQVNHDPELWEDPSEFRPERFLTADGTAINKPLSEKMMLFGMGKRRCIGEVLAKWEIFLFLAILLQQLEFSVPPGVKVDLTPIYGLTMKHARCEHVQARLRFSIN

A549 [22] = assay: Induction of cell cycle arrest in human A549 cells assessed as increases in cdc2 expression at Thr161 at 0.3 uM incubated for 24 hrs by Western blot analysis; type: functional, cell-based
Heat shock protein HSP90 [23] = target: T1, Heat shock protein HSP90; assay: Inhibition of HSP90 (unknown origin) assessed as competition of fluorescently labelled geldanamycin binding after 2 hrs by microplate reader analysis; type: protein assay
661W = assay: Cytotoxicity against mouse 661W cells by MTT based vision related toxicity assay; type: cell-based
[24] = Metabolic stability in Sprague-Dawley rat hepatocytes assessed as half life by LC-MS/MS analysis; type: ADME, cell-based, Hepatocyte
[25] = Hepatic clearance in Beagle dog by LC-MS/MS analysis; type: ADME, tissue-based, Canis lupus familiaris, Hepatocyte; settings: hepatocytes
A549 [26] = assay: Induction of apoptosis in human A549 cells expressing wild type p53 assessed as caspase 3 cleavage at 0.3 uM incubated for 24 hrs by Western blot analysis; type: functional, cell-based
[27] = Apparent permeability across apical to basolateral in human Caco2 cells by LC-MS/MS analysis; type: ADME, cell-based; settings: Caco-2, read-out: permeability
Heat shock protein HSP90 [28] = target: T1, Heat shock protein HSP90; assay: Inhibition of HSP90 in human A549 cells assessed as downregulation of FAK expression incubated for 24 hrs by immunoblot analysis; type: cell-based; settings: dose microM <=3, time 24.0 hrs
[29] = Apparent permeability across basolateral to apical in human Caco2 cells by LC-MS/MS analysis; type: ADME, cell-based; settings: Caco-2, read-out: permeability
A549 [30] = assay: Induction of cell cycle arrest in human A549 cells assessed as upregulation of cyclinB1 protein expression at 0.3 uM incubated for 24 hrs by Western blot analysis; type: functional, cell-based

For `CCN(C(=O)c1cc(C(C)C)c(O)cc1O)c1cccnc1`, the CLint [1] was 3080 mL/min/kg, the Activity (A549 [2]) was “Active” and the half-life [3] was 984 min. The Activity [4] was “Non-Toxic”, the Activity (A549 [5]) was “Active” and the inhibition (Heat shock protein HSP90 [6]) was “Tde”. The Activity (A549 [7]) was “Active”, the inhibition (Heat shock protein HSP90 [8]) was “Dose-Dependent Effect” and the inhibition (A549 [9]) was “Tde”. For the same compound, the inhibition in vivo at 50 mg/kg (NCI-H1975) was 34.3%, the Activity (A549 [10]) was 41% and the inhibition in vivo at 50 mg/kg (A549 [11]) was 46.9%. The half-life [12] was 67.6 min, the IC50 (Cytochrome P450 2D6) was > 50 µM and the CLint [13] was 119 mL/min/kg. The inhibition at 1 h, 10 µM (hERG (KCNH2)) was -18%, the CLhep predicted [14] was 87.5 mL/min/kg and the CLint [15] was 55.3 mL/min/kg. The Activity (A549 [16]) was “Active”, the Cmax [17] was 1580 ng/mL and the Activity [18] was “Non-Toxic”. For the same compound, the Tmax [19] was 15 min, the half-life [20] was 174 min and the half-life [21] was 5.31 min. The IC50 (Cytochrome P450 1A2) was > 50 µM, the Activity (A549 [22]) was “Active” and the IC50 (Heat shock protein HSP90 [23]) was 0.11 µM. The Activity (661W) was > 10 µM, the half-life [24] was 11.2 min and the CLhep predicted [25] was 25 mL/min/kg. For the same compound, the Activity (A549 [26]) was “inactive”, the Papp A→B [27] was 31.9 ×10⁻⁶ cm/s and the inhibition (Heat shock protein HSP90 [28]) was “Dose-Dependent Effect”. For the same compound, the Papp B→A [29] was 30.6 ×10⁻⁶ cm/s and the Activity (A549 [30]) was “Active”.
